Experimental data taken from ChEMBL document CHEMBL5537133, “Rational design and optimization of novel 4-methyl quinazoline derivatives as PI3K/HDAC dual inhibitors with benzamide as zinc binding moiety for the treatment of acute myeloid leukemia” (Eur J Med Chem, 2024).
Values belong to the molecule of their own block, whether it stands above or below them.

Assays:
[1] = target: Phosphatidylinositol 4,5-bisphosphate 3-kinase catalytic subunit alpha isoform (Homo sapiens, UniProt P42336)
Description: Inhibition of PI3Kalpha (unknown origin) using PIP2 as substrate incubated for 1 hr in presence of ATP by ADP-Glo assay

Histone deacetylase 1 = Histone deacetylase 1 (Homo sapiens, UniProt Q13547)
Description: Inhibition of C-terminal 6His-FLAG-tagged human recombinant HDAC1 (1 to 482 residues) expressed in Sf9 cells using Ac-peptide as substrate preincubated for 15 mins followed by substrate addition and measured after 1 hr by plate reader analysis

MV4-11 [2] = experiment: Antiproliferative activity against human MV4-11 cells assessed as reduction in cell viability incubated for 72 hrs by CCK-8 assay; assay type: functional, cell-based; settings: MV4-11, 72 h
Raji = experiment: Antiproliferative activity against human Raji cells assessed as reduction in cell viability incubated for 72 hrs by CCK-8 assay; assay type: functional, cell-based
BaF3 = experiment: Antiproliferative activity against mouse BaF3 cells assessed as reduction in cell viability incubated for 72 hrs by CCK-8 assay; assay type: functional, cell-based; settings: BaF3, 72 h
DOHH-2 = experiment: Antiproliferative activity against human DOHH-2 cells assessed as reduction in cell viability incubated for 72 hrs by CCK-8 assay; assay type: functional, cell-based; settings: DOHH-2, 72 h
NB-4 = experiment: Antiproliferative activity against human NB4 cells assessed as reduction in cell viability incubated for 72 hrs by CCK-8 assay; assay type: functional, cell-based; settings: NB-4, 72 h
[3] = Antiproliferative activity against human MINO cells assessed as reduction in cell viability incubated for 72 hrs by CCK-8 assay
Ramos = experiment: Antiproliferative activity against human Ramos cells assessed as reduction in cell viability incubated for 72 hrs by CCK-8 assay
EL4 = experiment: Antiproliferative activity against mouse EL4 cells assessed as reduction in cell viability incubated for 72 hrs by CCK-8 assay; assay type: functional, cell-based; settings: EL4, 72 h
HL-60 = experiment: Antiproliferative activity against human HL-60 cells assessed as reduction in cell viability incubated for 72 hrs by CCK-8 assay; assay type: functional, cell-based; settings: HL-60, 72 h
L1210 = experiment: Antiproliferative activity against mouse L1210 cells assessed as reduction in cell viability incubated for 72 hrs by CCK-8 assay; assay type: functional, cell-based; settings: L1210, 72 h
[4] = tested on: Friend leukemia cell line; experiment: Antiproliferative activity against mouse Friend leukemia cell line assessed as reduction in cell viability incubated for 72 hrs by CCK-8 assay; assay type: functional, cell-based
Histone deacetylase 3 = Histone deacetylase 3 (Homo sapiens, UniProt O15379); experiment: Inhibition of HDAC3 (unknown origin)
[5] = AUC(0 to t) in ICR mouse at 6 mg/kg, iv measured after 24 hrs by LC-MS/MS analysis; assay type: ADME, organism-based; settings: in vivo
[6] = Tmax in ICR mouse at 60 mg/kg, po measured after 24 hrs by LC-MS/MS analysis; assay type: ADME, organism-based; settings: in vivo
[7] = target: Serine/threonine-protein kinase mTOR (Homo sapiens, UniProt P42345); experiment: Inhibition of N-terminal FLAG-tagged recombinant human mTOR (1362 to end residues) using ULight-4E-BP1 (Thr37/46) peptide as substrate incubated for 30 mins in presence of ATP by LANCE ultra assay
Histone deacetylase 4 = Histone deacetylase 4 (Homo sapiens, UniProt P56524); experiment: Inhibition of N-terminal GST-tagged and C-terminal His-tagged human HDAC4 (627 to 1084 end residues) expressed in baculovirus infected Sf9 cells using Ac-peptide as substrate incubated for 1 hr by plate reader analysis
[8] = Cmax in ICR mouse at 60 mg/kg, po measured after 24 hrs by LC-MS/MS analysis; assay type: ADME, organism-based; settings: in vivo
[9] = Oral bioavailability in ICR mouse at 60 mg/kg measured after 24 hrs by LC-MS/MS analysis; assay type: ADME, organism-based; settings: in vivo
Histone deacetylase 11 = Histone deacetylase 11 (Homo sapiens, UniProt Q96DB2); experiment: Inhibition of human HDAC11 (1 to 347 end residues) expressed in Sf9 cells using Ac-peptide as substrate incubated for 1 hr by plate reader analysis
MV4-11 [10] = experiment: Antitumor activity against human MV4-11 cells xenografted in BALB/c nude mouse assessed as tumor growth inhibition at 60 mg/kg, po administered once daily for 14 days relative to control; assay type: functional; settings: MV4-11, 336 h, time 14 day, read-out: TGI
[11] = AUC(0 to t) in ICR mouse at 60 mg/kg, po measured after 24 hrs by LC-MS/MS analysis; assay type: ADME, organism-based; settings: in vivo
[12] = target: Phosphatidylinositol 4,5-bisphosphate 3-kinase catalytic subunit gamma isoform (Homo sapiens, UniProt P48736); experiment: Inhibition of PI3Kgamma (unknown origin) using PIP2 as substrate incubated for 1 hr in presence of ATP by ADP-Glo assay
MV4-11 [13] = experiment: Antitumor activity against human MV4-11 cells xenografted in BALB/c nude mouse assessed as tumor growth inhibition at 10 mg/kg, ip administered once daily for 14 days relative to control; assay type: functional; settings: MV4-11, 336 h, time 14 day, read-out: TGI
[14] = AUC(0 to infinity) in ICR mouse at 60 mg/kg, po measured after 24 hrs by LC-MS/MS analysis; assay type: ADME, organism-based; settings: in vivo
[15] = target: Phosphatidylinositol 4,5-bisphosphate 3-kinase catalytic subunit beta isoform (Homo sapiens, UniProt P42338); experiment: Inhibition of PI3Kbeta (unknown origin) using PIP2 as substrate incubated for 1 hr in presence of ATP by ADP-Glo assay
Histone deacetylase 2 = Histone deacetylase 2 (Homo sapiens, UniProt Q92769); experiment: Inhibition of C-terminal His6-FLAG-tagged human recombinant HDAC2 (1 to 488 residues) expressed in Sf9 cells using Ac-peptide as substrate preincubated for 15 mins followed by substrate addition and measured after 1 hr by plate reader analysis
[16] = Terminal half life in ICR mouse at 6 mg/kg, iv measured after 24 hrs by LC-MS/MS analysis; assay type: ADME, organism-based; settings: in vivo
[17] = Terminal half life in ICR mouse at 60 mg/kg, po measured after 24 hrs by LC-MS/MS analysis; assay type: ADME, organism-based; settings: in vivo, read-out: beta t1/2 (converted)
[18] = target: Protein deacetylase HDAC6 (Homo sapiens, UniProt Q9UBN7); experiment: Inhibition of HDAC6 (unknown origin)
[19] = Apparent volume of distribution in ICR mouse at 6 mg/kg, iv measured after 24 hrs by LC-MS/MS analysis; assay type: ADME, organism-based; settings: in vivo
[20] = Toxicity in BALB/c nude mouse xenografted with human MV4-11 cells assessed as change in body weight at 60 mg/kg, po administered only daily for 14 days and measured twice a week; assay type: organism-based; settings: in vivo, 336 h, time 14 day
MV4-11 [21] = experiment: Antitumor activity against human MV4-11 cells xenografted in BALB/c nude mouse assessed as tumor growth inhibition at 20 mg/kg, ip administered once daily for 14 days relative to control; assay type: functional; settings: MV4-11, 336 h, time 14 day, read-out: TGI
[22] = AUC(0 to infinity) in ICR mouse at 6 mg/kg, iv measured after 24 hrs by LC-MS/MS analysis; assay type: ADME, organism-based; settings: in vivo
[23] = Toxicity in BALB/c nude mouse xenografted with human MV4-11 cells assessed as change in body weight at 10 to 20 mg/kg, ip administered only daily for 14 days and measured twice a week; assay type: organism-based; settings: in vivo, 336 h, dose 10-20 mg/kg, time 14 day
[24] = target: Phosphatidylinositol 4,5-bisphosphate 3-kinase catalytic subunit delta isoform (Homo sapiens, UniProt O00329); experiment: Inhibition of PI3Kdelta (unknown origin) using PIP2 as substrate incubated for 1 hr in presence of ATP by ADP-Glo assay
Histone deacetylase 8 = Histone deacetylase 8 (Homo sapiens, UniProt Q9BY41); experiment: Inhibition of C-terminal His-tagged human recombinant HDAC8 (1 to 377 end residues) expressed in Sf9 cells using Ac-peptide as substrate incubated for 1 hr by plate reader analysis
[25] = Cmax in ICR mouse at 6 mg/kg, iv measured after 24 hrs by LC-MS/MS analysis; assay type: ADME, organism-based; settings: in vivo
MV4-11 [26] = experiment: Antiproliferative activity against human MV4-11 cells assessed as reduction in cell viability incubated for 72 hrs in presence of chidamide by CCK-8 assay; assay type: functional, cell-based; settings: MV4-11, 72 h

Chain of Phosphatidylinositol 4,5-bisphosphate 3-kinase catalytic subunit alpha isoform (P42336 whole entry, canonical isoform): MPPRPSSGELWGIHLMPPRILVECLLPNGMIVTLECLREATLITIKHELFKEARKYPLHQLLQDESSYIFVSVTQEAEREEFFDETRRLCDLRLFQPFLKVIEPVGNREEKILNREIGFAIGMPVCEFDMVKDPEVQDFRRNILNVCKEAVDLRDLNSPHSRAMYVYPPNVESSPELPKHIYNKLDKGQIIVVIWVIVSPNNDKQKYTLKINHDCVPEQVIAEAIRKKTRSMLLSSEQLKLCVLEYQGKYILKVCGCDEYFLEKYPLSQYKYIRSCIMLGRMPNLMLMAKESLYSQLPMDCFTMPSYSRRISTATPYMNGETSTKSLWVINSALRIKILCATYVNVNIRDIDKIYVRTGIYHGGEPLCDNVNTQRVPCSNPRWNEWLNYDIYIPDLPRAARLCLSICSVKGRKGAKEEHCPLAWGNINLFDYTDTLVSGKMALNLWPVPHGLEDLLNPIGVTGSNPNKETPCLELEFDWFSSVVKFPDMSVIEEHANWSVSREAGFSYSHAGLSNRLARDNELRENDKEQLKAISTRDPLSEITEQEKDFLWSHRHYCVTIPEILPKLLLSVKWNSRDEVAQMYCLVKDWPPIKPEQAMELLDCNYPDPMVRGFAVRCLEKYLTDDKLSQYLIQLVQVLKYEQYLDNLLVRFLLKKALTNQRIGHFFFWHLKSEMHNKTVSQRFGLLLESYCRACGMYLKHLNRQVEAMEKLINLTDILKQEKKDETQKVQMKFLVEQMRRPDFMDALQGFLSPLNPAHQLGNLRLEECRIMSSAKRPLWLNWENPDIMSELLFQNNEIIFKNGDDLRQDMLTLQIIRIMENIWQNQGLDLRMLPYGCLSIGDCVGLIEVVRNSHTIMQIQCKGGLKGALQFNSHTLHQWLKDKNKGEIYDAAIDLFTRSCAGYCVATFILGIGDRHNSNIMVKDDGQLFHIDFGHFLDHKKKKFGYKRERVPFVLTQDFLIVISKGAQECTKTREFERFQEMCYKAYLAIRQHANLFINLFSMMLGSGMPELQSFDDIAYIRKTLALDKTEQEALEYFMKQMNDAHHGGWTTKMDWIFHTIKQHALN
Chain of Histone deacetylase 1 (Q13547 whole entry): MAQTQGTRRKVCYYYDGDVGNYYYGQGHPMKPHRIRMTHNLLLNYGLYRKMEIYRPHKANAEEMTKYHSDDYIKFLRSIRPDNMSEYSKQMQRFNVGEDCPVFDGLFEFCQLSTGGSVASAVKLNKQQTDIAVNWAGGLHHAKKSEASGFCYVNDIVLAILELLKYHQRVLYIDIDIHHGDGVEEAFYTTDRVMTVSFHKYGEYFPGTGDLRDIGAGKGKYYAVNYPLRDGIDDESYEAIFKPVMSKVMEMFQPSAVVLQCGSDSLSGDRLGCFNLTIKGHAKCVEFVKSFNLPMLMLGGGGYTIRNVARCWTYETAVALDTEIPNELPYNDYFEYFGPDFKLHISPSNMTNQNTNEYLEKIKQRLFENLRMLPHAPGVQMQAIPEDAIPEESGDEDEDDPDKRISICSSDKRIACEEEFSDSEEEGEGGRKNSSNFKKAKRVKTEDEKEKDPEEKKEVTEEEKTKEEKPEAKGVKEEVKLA
Chain of Histone deacetylase 4 (P56524 whole entry): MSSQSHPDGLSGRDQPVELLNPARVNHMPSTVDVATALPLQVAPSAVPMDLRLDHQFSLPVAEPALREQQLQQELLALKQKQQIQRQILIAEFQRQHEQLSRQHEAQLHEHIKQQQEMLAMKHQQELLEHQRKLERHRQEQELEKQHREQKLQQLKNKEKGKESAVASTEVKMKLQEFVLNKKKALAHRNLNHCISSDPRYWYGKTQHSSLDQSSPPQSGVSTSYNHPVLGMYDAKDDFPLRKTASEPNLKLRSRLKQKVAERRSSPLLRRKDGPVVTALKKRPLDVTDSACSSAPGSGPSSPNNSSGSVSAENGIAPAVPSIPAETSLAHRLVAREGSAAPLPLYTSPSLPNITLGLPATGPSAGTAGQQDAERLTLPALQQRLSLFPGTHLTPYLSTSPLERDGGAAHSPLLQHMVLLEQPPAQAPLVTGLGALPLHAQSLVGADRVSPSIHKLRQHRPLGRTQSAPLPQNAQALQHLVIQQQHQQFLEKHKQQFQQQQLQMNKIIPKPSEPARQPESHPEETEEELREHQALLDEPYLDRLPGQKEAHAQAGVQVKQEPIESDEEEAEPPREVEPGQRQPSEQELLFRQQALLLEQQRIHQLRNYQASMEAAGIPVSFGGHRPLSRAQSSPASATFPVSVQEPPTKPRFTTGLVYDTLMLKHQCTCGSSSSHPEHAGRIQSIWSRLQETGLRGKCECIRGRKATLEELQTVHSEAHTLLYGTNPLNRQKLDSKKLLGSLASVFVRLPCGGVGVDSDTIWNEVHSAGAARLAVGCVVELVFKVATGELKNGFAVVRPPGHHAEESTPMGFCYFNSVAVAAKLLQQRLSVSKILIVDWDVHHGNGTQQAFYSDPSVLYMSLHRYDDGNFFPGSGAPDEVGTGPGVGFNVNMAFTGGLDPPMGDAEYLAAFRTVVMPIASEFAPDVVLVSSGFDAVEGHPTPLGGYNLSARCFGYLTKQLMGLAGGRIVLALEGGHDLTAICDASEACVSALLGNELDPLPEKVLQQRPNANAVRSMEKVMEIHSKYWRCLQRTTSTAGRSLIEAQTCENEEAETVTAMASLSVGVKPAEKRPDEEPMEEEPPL
Chain of Protein deacetylase HDAC6 (Q9UBN7 whole entry): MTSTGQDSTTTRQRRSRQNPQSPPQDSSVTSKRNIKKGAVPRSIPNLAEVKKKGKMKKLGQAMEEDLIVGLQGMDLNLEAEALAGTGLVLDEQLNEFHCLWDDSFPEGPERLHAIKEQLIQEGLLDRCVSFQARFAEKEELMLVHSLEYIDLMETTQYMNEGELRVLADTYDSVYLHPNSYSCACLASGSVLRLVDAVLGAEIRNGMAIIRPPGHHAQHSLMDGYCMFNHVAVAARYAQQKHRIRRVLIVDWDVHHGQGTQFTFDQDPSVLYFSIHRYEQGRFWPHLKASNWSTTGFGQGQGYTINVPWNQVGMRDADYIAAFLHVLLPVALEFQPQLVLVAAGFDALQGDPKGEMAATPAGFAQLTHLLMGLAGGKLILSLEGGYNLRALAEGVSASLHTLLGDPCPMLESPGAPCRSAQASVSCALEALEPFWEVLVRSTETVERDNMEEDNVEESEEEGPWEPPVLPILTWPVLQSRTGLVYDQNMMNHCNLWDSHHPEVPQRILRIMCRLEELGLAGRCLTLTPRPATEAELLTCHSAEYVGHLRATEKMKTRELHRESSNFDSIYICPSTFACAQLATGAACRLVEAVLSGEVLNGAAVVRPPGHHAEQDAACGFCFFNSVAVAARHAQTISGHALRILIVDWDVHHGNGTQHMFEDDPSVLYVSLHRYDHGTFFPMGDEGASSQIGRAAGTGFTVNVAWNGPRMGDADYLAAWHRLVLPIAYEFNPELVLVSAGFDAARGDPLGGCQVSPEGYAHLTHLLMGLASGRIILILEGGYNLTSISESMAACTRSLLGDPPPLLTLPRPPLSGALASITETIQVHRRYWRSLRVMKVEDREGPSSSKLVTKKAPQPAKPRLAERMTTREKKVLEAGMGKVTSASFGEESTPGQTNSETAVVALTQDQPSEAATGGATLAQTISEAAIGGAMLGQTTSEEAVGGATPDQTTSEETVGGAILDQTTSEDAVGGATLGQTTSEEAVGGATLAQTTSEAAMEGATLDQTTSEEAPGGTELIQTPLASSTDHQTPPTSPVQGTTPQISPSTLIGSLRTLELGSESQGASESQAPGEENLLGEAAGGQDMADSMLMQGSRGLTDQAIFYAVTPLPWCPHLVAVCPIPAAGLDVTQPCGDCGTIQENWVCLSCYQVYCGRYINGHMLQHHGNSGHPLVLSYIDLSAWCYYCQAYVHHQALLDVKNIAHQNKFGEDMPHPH
Chain of Phosphatidylinositol 4,5-bisphosphate 3-kinase catalytic subunit beta isoform (P42338 whole entry, the tested form may be a part, canonical isoform): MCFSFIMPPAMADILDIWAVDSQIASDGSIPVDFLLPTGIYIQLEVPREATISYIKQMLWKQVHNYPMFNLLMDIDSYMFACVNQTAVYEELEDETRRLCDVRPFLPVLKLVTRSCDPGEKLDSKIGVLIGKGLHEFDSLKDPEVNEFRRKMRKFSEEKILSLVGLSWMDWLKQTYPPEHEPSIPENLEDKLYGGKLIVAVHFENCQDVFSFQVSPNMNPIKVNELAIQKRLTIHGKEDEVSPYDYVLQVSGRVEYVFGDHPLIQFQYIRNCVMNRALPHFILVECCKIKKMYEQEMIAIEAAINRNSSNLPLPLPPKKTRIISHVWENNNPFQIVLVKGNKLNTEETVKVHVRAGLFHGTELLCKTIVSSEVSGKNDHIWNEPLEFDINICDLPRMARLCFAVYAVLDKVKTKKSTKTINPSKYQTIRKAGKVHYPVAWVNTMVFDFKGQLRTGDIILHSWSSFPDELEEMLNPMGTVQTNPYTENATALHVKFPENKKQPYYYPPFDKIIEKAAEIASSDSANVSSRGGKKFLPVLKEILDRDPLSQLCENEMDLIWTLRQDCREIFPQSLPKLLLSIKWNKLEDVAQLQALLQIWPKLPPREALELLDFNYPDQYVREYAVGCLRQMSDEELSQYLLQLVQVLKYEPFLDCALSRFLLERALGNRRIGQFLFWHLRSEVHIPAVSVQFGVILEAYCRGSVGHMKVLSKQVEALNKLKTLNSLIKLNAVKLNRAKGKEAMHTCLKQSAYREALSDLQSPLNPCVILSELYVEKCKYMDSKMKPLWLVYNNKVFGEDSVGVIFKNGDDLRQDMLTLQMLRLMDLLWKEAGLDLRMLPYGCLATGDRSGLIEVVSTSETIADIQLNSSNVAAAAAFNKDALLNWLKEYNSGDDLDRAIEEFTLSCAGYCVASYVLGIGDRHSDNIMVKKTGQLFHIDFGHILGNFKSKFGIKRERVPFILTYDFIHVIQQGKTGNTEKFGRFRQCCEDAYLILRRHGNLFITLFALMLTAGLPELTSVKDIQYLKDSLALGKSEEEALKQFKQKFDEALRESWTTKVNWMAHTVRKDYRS

IC50 [1]: 0.2 nM | IC50 (Histone deacetylase 1): 3560 nM | IC50 (MV4-11 [2]): 20 nM
Compound: COc1ncc(-c2cc(OCCCCC(=O)Nc3ccccc3N)c3ncnc(C)c3c2)cc1NS(=O)(=O)c1ccc(F)cc1F

IC50 [1]: 0.28 nM | IC50 (Histone deacetylase 1): 525 nM | IC50 (MV4-11 [2]): 20 nM
Compound: COc1ncc(-c2cc(OCCCCCCCC(=O)Nc3ccccc3N)c3ncnc(C)c3c2)cc1NS(=O)(=O)c1ccc(F)cc1F

IC50 (Raji): 990 nM | IC50 (BaF3): 4800 nM | IC50 (Ramos): 5400 nM | IC50 (HL-60): 1200 nM | IC50 (L1210): 370 nM | IC50 (MV4-11 [2]): 560 nM | IC50 [4]: 810 nM
Compound: Nc1cc(C(F)(F)F)c(-c2cc(N3CCOCC3)nc(N3CCOCC3)n2)cn1 [BUPARLISIB]
IC50 (DOHH-2): 1400 nM | IC50 (NB-4): 750 nM | IC50 [3]: 1500 nM | IC50 (EL4): 860 nM

IC50 (Raji): 6900 nM | IC50 (BaF3): 1500 nM | IC50 (Ramos): > 10000 nM | IC50 (HL-60): 1300 nM | IC50 (L1210): > 10000 nM | IC50 (MV4-11 [2]): 320 nM | IC50 [4]: 500 nM
Compound: Nc1ccc(F)cc1NC(=O)c1ccc(CNC(=O)/C=C/c2cccnc2)cc1
IC50 (DOHH-2): 4300 nM | IC50 (NB-4): 1900 nM | IC50 [3]: 2100 nM | IC50 (EL4): 5200 nM

IC50 (Histone deacetylase 3): 6.6 nM | IC50 [1]: 0.26 nM | AUC(0-t) at 24 h [5]: 4880 ng·h/mL | IC50 (Histone deacetylase 1): 28 nM | Tmax [6]: 0.25 h | IC50 [7]: 9.5 nM | IC50 (Raji): 4600 nM | IC50 (BaF3): 80 nM | IC50 (Histone deacetylase 4): > 10000 nM | Cmax [8]: 306 ng/mL | bioavailability [9]: 3.5% | IC50 (Histone deacetylase 11): 3520 nM | AUC(0-t) at 24 h [11]: 1230 ng·h/mL | IC50 [12]: 15 nM | AUC(0-inf) ([14]; ICR): 1710 ng·h/mL | IC50 [15]: 0.62 nM | IC50 (Histone deacetylase 2): 84.5 nM | IC50 (Ramos): 5000 nM | beta t1/2 [16]: 2.43 h | IC50 (HL-60): 330 nM | half-life [17]: 4.46 h | IC50 [18]: > 10000 nM | Vz [19]: 4.27 L/kg | IC50 (L1210): 850 nM | IC50 (MV4-11 [2]): 50 nM | AUC [22]: 4930 ng·h/mL | IC50 [4]: 320 nM | IC50 [24]: 1.8 nM | IC50 (Histone deacetylase 8): > 10000 nM
Compound: COc1ncc(-c2cc(OCCCc3ccc(C(=O)Nc4ccccc4N)cc3)c3ncnc(C)c3c2)cc1NS(=O)(=O)c1ccc(F)cc1F
IC50 (DOHH-2): 5300 nM | IC50 (NB-4): 370 nM | inhibition in vivo at 60 mg/kg (MV4-11 [10]): 64.3% | IC50 [3]: 6600 nM | inhibition in vivo at 10 mg/kg (MV4-11 [13]): 50% | IC50 (EL4): 840 nM | Activity [20]: Non-Toxic | inhibition in vivo at 20 mg/kg (MV4-11 [21]): 60.7% | Activity [23]: Non-Toxic

IC50 (Histone deacetylase 3): 899 nM | IC50 [1]: 0.23 nM | AUC(0-t) at 24 h [5]: 1580 ng·h/mL | IC50 (Histone deacetylase 1): 172 nM | Tmax [6]: 0.52 h | IC50 [7]: 3.4 nM | IC50 (Raji): 6300 nM | IC50 (BaF3): 130 nM | IC50 (Histone deacetylase 4): > 10000 nM | Cmax [8]: 3780 ng/mL | IC50 (Histone deacetylase 11): > 10000 nM | AUC(0-t) at 24 h [11]: 5020 ng·h/mL | IC50 [12]: 1.8 nM | AUC ([14]; po, 60 mg/kg, 24 h): 5042 ng·h/mL | Cmax [25]: 8310 ng/mL | IC50 [15]: 0.66 nM | IC50 (Histone deacetylase 2): 181 nM | IC50 (Ramos): 4400 nM | beta t1/2 [16]: 2.3 h | IC50 (HL-60): 210 nM | half-life [17]: 1.38 h | IC50 [18]: > 10000 nM | IC50 (L1210): 140 nM | IC50 (MV4-11 [2]): 4 nM | AUC [22]: 1605 ng·h/mL | IC50 [4]: 350 nM | IC50 [24]: 1.9 nM | IC50 (Histone deacetylase 8): > 10000 nM
Compound: COc1ncc(-c2cc(OCCCCCCC(=O)Nc3ccccc3N)c3ncnc(C)c3c2)cc1NS(=O)(=O)c1ccc(F)cc1F
IC50 (DOHH-2): 5400 nM | IC50 (NB-4): 40 nM | inhibition in vivo at 60 mg/kg (MV4-11 [10]): 53.6% | IC50 [3]: 5400 nM | inhibition in vivo at 10 mg/kg (MV4-11 [13]): 53.6% | IC50 (EL4): 560 nM | Activity [20]: Non-Toxic | inhibition in vivo at 20 mg/kg (MV4-11 [21]): 75% | Activity [23]: Non-Toxic

IC50 (MV4-11 [2]): 250 nM
Compound: COc1ncc(-c2cc(OCCCCCCC(=O)NO)c3ncnc(C)c3c2)cc1F

IC50 (MV4-11 [26]): 190 nM | IC50 (MV4-11 [2]): 3500 nM
Compound: Cc1nc(NC(=O)N2CCC[C@H]2C(N)=O)sc1-c1ccnc(C(C)(C)C(F)(F)F)c1 [ALPELISIB]
